Reference: paper PMC11626117 (Proceedings of the National Academy of Sciences of the …, 2024)

Molecular target: CoaX (Rv3600c) (Mycobacterium tuberculosis, UniProt P9WPA1)
Sequence (P9WPA1 whole entry, looked up): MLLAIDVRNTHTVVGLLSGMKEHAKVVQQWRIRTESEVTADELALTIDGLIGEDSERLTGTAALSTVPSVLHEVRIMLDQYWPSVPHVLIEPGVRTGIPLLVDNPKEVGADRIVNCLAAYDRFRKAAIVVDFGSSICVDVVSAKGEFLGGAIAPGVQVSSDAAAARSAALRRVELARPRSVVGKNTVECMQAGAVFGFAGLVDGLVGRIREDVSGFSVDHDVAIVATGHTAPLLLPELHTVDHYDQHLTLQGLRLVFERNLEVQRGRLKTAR

**Q.** Nc1ncnc2c1ncn2[C@@H]1O[C@H](COP(=O)(O)OP(=O)(O)OP(O)(O)=S)[C@@H](O)[C@H]1O [ATPγS] was tested. Which thermal shift did it give?
**A.** increasing concentrations of ATPγS in the presence of pantothenate had the largest effect

**Q.** Which thermal shift does the source give for CC(C)(CO)[C@@H](O)C(=O)NCCC(=O)O [pantothenate] here?
**A.** Increasing pantothenate concentration had a subtle effect on CoaX thermostability
